{"source": "PubChem BioAssay AID2060513", "about": "(Molecular Pharmacology Branch, DTP, NCI, 2025);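 note: spheroids exposed to the agents for seven days before readout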;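 for viability, T/C: percent viability relative to DMSO vehicle control wells = 100%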", "system": "299254-011-R-J1-PDC complex spheroids viability", "assay": "Anticancer human tumor 299254-011-R-J1-PDC patient-derived melanoma cell line growth inhibition [GQUAD]", "conditions": "for IC50: curve of first compound; for viability, T/C: stronger effect = lower value", "how_it_was_run": "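Multi-cell-type spheroids of tumor cells with HUVEC and mesenchymal stem cells, treated with drug combinations. Concentrations descend in half-log steps from near clinical Cmax, or from 10 microM where Cmax is unknown; viability read-out.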", "key": {"[1]": {"conditions": "second compound 0.0316 µM, first compound 0.0316 µM"}, "[2]": {"conditions": "second compound 0.0316 µM, first compound 0.316 µM"}, "[3]": {"conditions": "second compound 0.1 µM, first compound 0.0316 µM"}, "[4]": {"conditions": "second compound 0.1 µM, first compound 0.316 µM"}, "[5]": {"conditions": "second compound 0.316 µM, first compound 0.0316 µM"}, "[6]": {"conditions": "second compound 0.316 µM, first compound 0.316 µM"}, "[7]": {"conditions": "second compound 1 µM, first compound 0.0316 µM"}, "[8]": {"conditions": "second compound 1 µM, first compound 0.316 µM"}, "[9]": {"conditions": "second compound 3.16 µM, first compound 0.0316 µM"}, "[10]": {"conditions": "second compound 3.16 µM, first compound 0.316 µM"}, "[11]": {"conditions": "second compound 10 µM, first compound 0.0316 µM"}, "[12]": {"conditions": "second compound 10 µM, first compound 0.316 µM"}}}
{"smiles": "Cn1ncnc1[C@H]1c2n[nH]c(=O)c3cc(F)cc(c23)N[C@@H]1c1ccc(F)cc1", "note": "+ Cc1cnc(CNC(=O)c2c(=O)c3ccc(N4CCCN(C)CC4)nc3n3c2sc2ccccc23)cn1", "values": [{"measurement": "IC50", "setting": "second compound 0.0316 µM", "value": "> 316", "unit": "nM"}, {"measurement": "IC50", "setting": "second compound 0.1 µM", "value": "> 316", "unit": "nM"}, {"measurement": "IC50", "setting": "second compound 0.316 µM", "value": "> 316", "unit": "nM"}, {"measurement": "IC50", "setting": "second compound 1 µM", "value": "> 316", "unit": "nM"}, {"measurement": "IC50", "setting": "second compound 3.16 µM", "value": "> 316", "unit": "nM"}, {"measurement": "IC50", "setting": "second compound 10 µM", "value": "> 316", "unit": "nM"}, {"measurement": "viability, T/C", "setting": "second compound 0.0316 µM, first compound 0.000999 µM", "value": 94.1, "unit": "%"}, {"measurement": "viability, T/C", "setting": "second compound 0.0316 µM, first compound 0.00316 µM", "value": 116, "unit": "%"}, {"measurement": "viability, T/C", "setting": "second compound 0.0316 µM, first compound 0.00999 µM", "value": 125, "unit": "%"}, {"measurement": "viability, T/C", "setting": "[1]", "value": 87.5, "unit": "%"}, {"measurement": "viability, T/C", "setting": "second compound 0.0316 µM, first compound 0.0999 µM", "value": 108, "unit": "%"}, {"measurement": "viability, T/C", "setting": "[2]", "value": 105, "unit": "%"}, {"measurement": "viability, T/C", "setting": "second compound 0.1 µM, first compound 0.000999 µM", "value": 97.2, "unit": "%"}, {"measurement": "viability, T/C", "setting": "second compound 0.1 µM, first compound 0.00316 µM", "value": 96.2, "unit": "%"}, {"measurement": "viability, T/C", "setting": "second compound 0.1 µM, first compound 0.00999 µM", "value": 91.4, "unit": "%"}, {"measurement": "viability, T/C", "setting": "[3]", "value": 122, "unit": "%"}, {"measurement": "viability, T/C", "setting": "second compound 0.1 µM, first compound 0.0999 µM", "value": 121, "unit": "%"}, {"measurement": "viability, T/C", "setting": "[4]", "value": 90.3, "unit": "%"}, {"measurement": "viability, T/C", "setting": "second compound 0.316 µM, first compound 0.000999 µM", "value": 93.4, "unit": "%"}, {"measurement": "viability, T/C", "setting": "second compound 0.316 µM, first compound 0.00316 µM", "value": 91.2, "unit": "%"}, {"measurement": "viability, T/C", "setting": "second compound 0.316 µM, first compound 0.00999 µM", "value": 88.3, "unit": "%"}, {"measurement": "viability, T/C", "setting": "[5]", "value": 99.1, "unit": "%"}, {"measurement": "viability, T/C", "setting": "second compound 0.316 µM, first compound 0.0999 µM", "value": 111, "unit": "%"}, {"measurement": "viability, T/C", "setting": "[6]", "value": 105, "unit": "%"}, {"measurement": "viability, T/C", "setting": "second compound 1 µM, first compound 0.000999 µM", "value": 90.9, "unit": "%"}, {"measurement": "viability, T/C", "setting": "second compound 1 µM, first compound 0.00316 µM", "value": 96.9, "unit": "%"}, {"measurement": "viability, T/C", "setting": "second compound 1 µM, first compound 0.00999 µM", "value": 84.2, "unit": "%"}, {"measurement": "viability, T/C", "setting": "[7]", "value": 104, "unit": "%"}, {"measurement": "viability, T/C", "setting": "second compound 1 µM, first compound 0.0999 µM", "value": 83.2, "unit": "%"}, {"measurement": "viability, T/C", "setting": "[8]", "value": 94.1, "unit": "%"}, {"measurement": "viability, T/C", "setting": "second compound 3.16 µM, first compound 0.000999 µM", "value": 85.3, "unit": "%"}, {"measurement": "viability, T/C", "setting": "second compound 3.16 µM, first compound 0.00316 µM", "value": 82.3, "unit": "%"}, {"measurement": "viability, T/C", "setting": "second compound 3.16 µM, first compound 0.00999 µM", "value": 68.8, "unit": "%"}, {"measurement": "viability, T/C", "setting": "[9]", "value": 91.2, "unit": "%"}, {"measurement": "viability, T/C", "setting": "second compound 3.16 µM, first compound 0.0999 µM", "value": 74.2, "unit": "%"}, {"measurement": "viability, T/C", "setting": "[10]", "value": 92.1, "unit": "%"}, {"measurement": "viability, T/C", "setting": "second compound 10 µM, first compound 0.000999 µM", "value": 71.7, "unit": "%"}, {"measurement": "viability, T/C", "setting": "second compound 10 µM, first compound 0.00316 µM", "value": 60.6, "unit": "%"}, {"measurement": "viability, T/C", "setting": "second compound 10 µM, first compound 0.00999 µM", "value": 105, "unit": "%"}, {"measurement": "viability, T/C", "setting": "[11]", "value": 61.1, "unit": "%"}, {"measurement": "viability, T/C", "setting": "second compound 10 µM, first compound 0.0999 µM", "value": 87.4, "unit": "%"}, {"measurement": "viability, T/C", "setting": "[12]", "value": 61.8, "unit": "%"}]}
{"smiles": "O=C(c1cc(Cc2n[nH]c(=O)c3ccccc23)ccc1F)N1CCN(C(=O)C2CC2)CC1", "note": "+ Cc1cnc(CNC(=O)c2c(=O)c3ccc(N4CCCN(C)CC4)nc3n3c2sc2ccccc23)cn1", "values": [{"measurement": "IC50", "setting": "second compound 0.0316 µM", "value": "> 10000", "unit": "nM"}, {"measurement": "IC50", "setting": "second compound 0.1 µM", "value": "> 10000", "unit": "nM"}, {"measurement": "IC50", "setting": "second compound 0.316 µM", "value": "> 10000", "unit": "nM"}, {"measurement": "IC50", "setting": "second compound 1 µM", "value": "> 10000", "unit": "nM"}, {"measurement": "IC50", "setting": "second compound 3.16 µM", "value": "> 10000", "unit": "nM"}, {"measurement": "IC50", "setting": "second compound 10 µM", "value": "< 31.6", "unit": "nM"}, {"measurement": "viability, T/C", "setting": "[1]", "value": 99.3, "unit": "%"}, {"measurement": "viability, T/C", "setting": "second compound 0.0316 µM, first compound 0.1 µM", "value": 92.8, "unit": "%"}, {"measurement": "viability, T/C", "setting": "[2]", "value": 94.1, "unit": "%"}, {"measurement": "viability, T/C", "setting": "second compound 0.0316 µM, first compound 1 µM", "value": 83.4, "unit": "%"}, {"measurement": "viability, T/C", "setting": "second compound 0.0316 µM, first compound 3.16 µM", "value": 87.2, "unit": "%"}, {"measurement": "viability, T/C", "setting": "second compound 0.0316 µM, first compound 10 µM", "value": 81.5, "unit": "%"}, {"measurement": "viability, T/C", "setting": "[3]", "value": 102, "unit": "%"}, {"measurement": "viability, T/C", "setting": "second compound 0.1 µM, first compound 0.1 µM", "value": 99.8, "unit": "%"}, {"measurement": "viability, T/C", "setting": "[4]", "value": 89.7, "unit": "%"}, {"measurement": "viability, T/C", "setting": "second compound 0.1 µM, first compound 1 µM", "value": 98.4, "unit": "%"}, {"measurement": "viability, T/C", "setting": "second compound 0.1 µM, first compound 3.16 µM", "value": 117, "unit": "%"}, {"measurement": "viability, T/C", "setting": "second compound 0.1 µM, first compound 10 µM", "value": 81.6, "unit": "%"}, {"measurement": "viability, T/C", "setting": "[5]", "value": 81.6, "unit": "%"}, {"measurement": "viability, T/C", "setting": "second compound 0.316 µM, first compound 0.1 µM", "value": 97.2, "unit": "%"}, {"measurement": "viability, T/C", "setting": "[6]", "value": 91.3, "unit": "%"}, {"measurement": "viability, T/C", "setting": "second compound 0.316 µM, first compound 1 µM", "value": 102, "unit": "%"}, {"measurement": "viability, T/C", "setting": "second compound 0.316 µM, first compound 3.16 µM", "value": 103, "unit": "%"}, {"measurement": "viability, T/C", "setting": "second compound 0.316 µM, first compound 10 µM", "value": 73.9, "unit": "%"}, {"measurement": "viability, T/C", "setting": "[7]", "value": 78, "unit": "%"}, {"measurement": "viability, T/C", "setting": "second compound 1 µM, first compound 0.1 µM", "value": 79.5, "unit": "%"}, {"measurement": "viability, T/C", "setting": "[8]", "value": 82.7, "unit": "%"}, {"measurement": "viability, T/C", "setting": "second compound 1 µM, first compound 1 µM", "value": 73.5, "unit": "%"}, {"measurement": "viability, T/C", "setting": "second compound 1 µM, first compound 3.16 µM", "value": 75.6, "unit": "%"}, {"measurement": "viability, T/C", "setting": "second compound 1 µM, first compound 10 µM", "value": 66, "unit": "%"}, {"measurement": "viability, T/C", "setting": "[9]", "value": 67.1, "unit": "%"}, {"measurement": "viability, T/C", "setting": "second compound 3.16 µM, first compound 0.1 µM", "value": 91.5, "unit": "%"}, {"measurement": "viability, T/C", "setting": "[10]", "value": 93.7, "unit": "%"}, {"measurement": "viability, T/C", "setting": "second compound 3.16 µM, first compound 1 µM", "value": 78.8, "unit": "%"}, {"measurement": "viability, T/C", "setting": "second compound 3.16 µM, first compound 3.16 µM", "value": 69.5, "unit": "%"}, {"measurement": "viability, T/C", "setting": "second compound 3.16 µM, first compound 10 µM", "value": 67.9, "unit": "%"}, {"measurement": "viability, T/C", "setting": "[11]", "value": 0.42, "unit": "%"}, {"measurement": "viability, T/C", "setting": "second compound 10 µM, first compound 0.1 µM", "value": 20.2, "unit": "%"}, {"measurement": "viability, T/C", "setting": "[12]", "value": 52.3, "unit": "%"}, {"measurement": "viability, T/C", "setting": "second compound 10 µM, first compound 1 µM", "value": 41.7, "unit": "%"}, {"measurement": "viability, T/C", "setting": "second compound 10 µM, first compound 3.16 µM", "value": 0.43, "unit": "%"}, {"measurement": "viability, T/C", "setting": "second compound 10 µM, first compound 10 µM", "value": 0.33, "unit": "%"}]}
